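Test compounds were applied to cells in 96-well plates for 48 hours at 5 doses. TGI denotes the concentration required for complete inhibition of growth.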
How the values were obtained:
Assay in all cases: NCI-60 cell line screen, 48 h
786-0 renal = tested on: 786-0 renal
A498 renal = tested on: A498 renal
A549 NSCLC = tested on: A549 NSCLC
ACHN renal = tested on: ACHN renal
CAKI-1 renal = tested on: CAKI-1 renal
CCRF-CEM leukemia = tested on: CCRF-CEM leukemia
COLO 205 colon = tested on: COLO 205 colon
DLD-1 colon = tested on: DLD-1 colon
DMS 273 small cell lung = tested on: DMS 273 small cell lung
EKVX NSCLC = tested on: EKVX NSCLC
HCC-2998 colon = tested on: HCC-2998 colon
HCT-15 colon = tested on: HCT-15 colon
HL-60(TB) leukemia = tested on: HL-60(TB) leukemia
HOP-18 NSCLC = tested on: HOP-18 NSCLC
HOP-92 NSCLC = tested on: HOP-92 NSCLC
HT29 colon = tested on: HT29 colon
IGROV1 ovarian = tested on: IGROV1 ovarian
K-562 leukemia = tested on: K-562 leukemia
KM12 colon = tested on: KM12 colon
KM20L2 colon = tested on: KM20L2 colon
LOX IMVI melanoma = tested on: LOX IMVI melanoma
LXFL 529 NSCLC = tested on: LXFL 529 NSCLC
M14 melanoma = tested on: M14 melanoma
M19-MEL melanoma = tested on: M19-MEL melanoma
MALME-3M melanoma = tested on: MALME-3M melanoma
MOLT-4 leukemia = tested on: MOLT-4 leukemia
NCI-H226 lung = tested on: NCI-H226 lung
NCI-H23 lung = tested on: NCI-H23 lung
NCI-H460 lung = tested on: NCI-H460 lung
NCI-H522 lung = tested on: NCI-H522 lung
OVCAR-3 ovarian = tested on: OVCAR-3 ovarian
OVCAR-4 ovarian = tested on: OVCAR-4 ovarian
OVCAR-5 ovarian = tested on: OVCAR-5 ovarian
OVCAR-8 ovarian = tested on: OVCAR-8 ovarian
RPMI-8226 leukemia = tested on: RPMI-8226 leukemia
RXF 393 renal = tested on: RXF 393 renal
SF-268 CNS = tested on: SF-268 CNS
SF-295 CNS = tested on: SF-295 CNS
SF-539 CNS = tested on: SF-539 CNS
SK-MEL-2 melanoma = tested on: SK-MEL-2 melanoma
SK-MEL-28 melanoma = tested on: SK-MEL-28 melanoma
SK-MEL-5 melanoma = tested on: SK-MEL-5 melanoma
SK-OV-3 ovarian = tested on: SK-OV-3 ovarian
SN12C renal = tested on: SN12C renal
SNB-19 CNS = tested on: SNB-19 CNS
SNB-75 CNS = tested on: SNB-75 CNS
SW-620 colon = tested on: SW-620 colon
TK-10 renal = tested on: TK-10 renal
U251 CNS = tested on: U251 CNS
UACC-257 melanoma = tested on: UACC-257 melanoma
UACC-62 melanoma = tested on: UACC-62 melanoma
UO-31 renal = tested on: UO-31 renal
XF 498 CNS = tested on: XF 498 CNS
HCT-116 colon = tested on: HCT-116 colon
HOP-62 NSCLC = tested on: HOP-62 NSCLC
SR leukemia = tested on: SR leukemia
DMS 114 small cell lung = tested on: DMS 114 small cell lung
SNB-78 CNS = tested on: SNB-78 CNS

Measured: TGI

O=C(O)CCCNS(=O)(=O)c1ccccc1
> 100 µM: 786-0 renal | A498 renal | A549 NSCLC | ACHN renal | CAKI-1 renal | CCRF-CEM leukemia | COLO 205 colon | DLD-1 colon | DMS 273 small cell lung | EKVX NSCLC | HCC-2998 colon | HCT-15 colon | HL-60(TB) leukemia | HOP-18 NSCLC | HOP-92 NSCLC | HT29 colon | IGROV1 ovarian | K-562 leukemia | KM12 colon | KM20L2 colon | LOX IMVI melanoma | LXFL 529 NSCLC | M14 melanoma | M19-MEL melanoma | MALME-3M melanoma | MOLT-4 leukemia | NCI-H226 lung | NCI-H23 lung | NCI-H460 lung | NCI-H522 lung | OVCAR-3 ovarian | OVCAR-4 ovarian | OVCAR-5 ovarian | OVCAR-8 ovarian | RPMI-8226 leukemia | RXF 393 renal | SF-268 CNS | SF-295 CNS | SF-539 CNS | SK-MEL-2 melanoma | SK-MEL-28 melanoma | SK-MEL-5 melanoma | SK-OV-3 ovarian | SN12C renal | SNB-19 CNS | SNB-75 CNS | SW-620 colon | TK-10 renal | U251 CNS | UACC-257 melanoma | UACC-62 melanoma | UO-31 renal | XF 498 CNS

Cc1cc([N+](=O)[O-])ccc1Sc1c2ccccc2nc2ccccc12
71.3 µM: UACC-257 melanoma
98.2 µM: HOP-92 NSCLC
73.1 µM: MOLT-4 leukemia
56.5 µM: SF-539 CNS
78.9 µM: U251 CNS
89.8 µM: KM20L2 colon
66.8 µM: UACC-62 melanoma
97.3 µM: CAKI-1 renal
55.5 µM: 786-0 renal
49.1 µM: HL-60(TB) leukemia
50 µM: XF 498 CNS
79.2 µM: NCI-H23 lung
55.9 µM: SK-MEL-2 melanoma
66.6 µM: HCT-116 colon
56.1 µM: HCC-2998 colon
32.7 µM: KM12 colon
45.5 µM: LXFL 529 NSCLC
38.6 µM: LOX IMVI melanoma
38.9 µM: NCI-H522 lung
70.1 µM: SR leukemia
79.5 µM: CCRF-CEM leukemia
93.3 µM: SN12C renal
84.4 µM: OVCAR-8 ovarian
57.2 µM: HCT-15 colon
> 100 µM: A498 renal | A549 NSCLC | ACHN renal | COLO 205 colon | DLD-1 colon | DMS 273 small cell lung | EKVX NSCLC | HOP-18 NSCLC | HOP-62 NSCLC | IGROV1 ovarian | K-562 leukemia | M14 melanoma | MALME-3M melanoma | NCI-H226 lung | NCI-H460 lung | OVCAR-3 ovarian | OVCAR-4 ovarian | OVCAR-5 ovarian | RXF 393 renal | SF-268 CNS | SF-295 CNS | SK-MEL-28 melanoma | SK-MEL-5 melanoma | SK-OV-3 ovarian | SNB-19 CNS | SNB-75 CNS | SW-620 colon | TK-10 renal | UO-31 renal

COC(=O)C1CCC2(C)[C@H](CCC3O[C@]32C)[C@@]1(C)CC(=O)c1ccoc1 (some centres undefined)
> 100 µM: 786-0 renal | A498 renal | A549 NSCLC | ACHN renal | CAKI-1 renal | CCRF-CEM leukemia | COLO 205 colon | DLD-1 colon | DMS 114 small cell lung | DMS 273 small cell lung | EKVX NSCLC | HCC-2998 colon | HCT-116 colon | HCT-15 colon | HL-60(TB) leukemia | HOP-62 NSCLC | IGROV1 ovarian | K-562 leukemia | KM12 colon | KM20L2 colon | LOX IMVI melanoma | LXFL 529 NSCLC | M14 melanoma | M19-MEL melanoma | MALME-3M melanoma | MOLT-4 leukemia | NCI-H226 lung | NCI-H23 lung | NCI-H460 lung | NCI-H522 lung | OVCAR-3 ovarian | OVCAR-4 ovarian | OVCAR-5 ovarian | OVCAR-8 ovarian | RPMI-8226 leukemia | RXF 393 renal | SF-268 CNS | SF-295 CNS | SF-539 CNS | SK-MEL-28 melanoma | SK-MEL-5 melanoma | SK-OV-3 ovarian | SN12C renal | SNB-19 CNS | SNB-78 CNS | SR leukemia | SW-620 colon | TK-10 renal | U251 CNS | UACC-257 melanoma | UACC-62 melanoma | UO-31 renal | XF 498 CNS
